Measured values as given in patent publication US8227620B2, “Pharmaceutical compounds” (Neuroscienze Pharmaness S.C. A.R.L., priority 2004, dated 2012).
Entries after “also recorded” stand apart in the source; their conditions may differ.

Test system: rat intestinal motility
Test: Intestinal motility, Upper Gut Transit Test
Assay type: in vivo
Details: for antagonism of the constipating effect of the CB1 agonist WIN 55,212-2 / effect on the intestinal transit rate / intestinal portion run by the marker relative to the length run after physiological solution with Tween 80: i.p.; for intestinal portion run by the marker relative to the length run after physiological solution with Tween 80: compound alone
Protocol: To further evaluate the activity in vivo of the compounds (I) object of the present invention, functional tests were carried out to evaluate the effect of said compounds on the rat intestinal motility. It was indeed shown the involvement of the cannabinoidergic CB1 receptors in the intestinal motility regulation in rat (R. G. Pertwee et al; Br. J. Pharmacol.; 1996, 118, 2199-2205). In particular, the CB1 receptor agonists slacken the gastrointestinal motility; antagonist compounds of the same receptors have instead a prokinetic effect on the gastrointestinal transit (G. Colombo et al.; Eur. J. Pharmacol.; 1998, 344, 67-69; M. A. Casu et al.; Eur. J. Pharmacol.; 2003, 459, 97-105).
The evaluation of the constipating or prokinetic effect of the compounds was carried out by the Upper Gut Transit Test method on the basis of the procedure defined and ratified by Y. Nagakura et al.; Eur. J. Pharmacol.; 1996, 311, 67-72. The method, which allows to measure the motility of the stomach and of the first intestine tract (small or little intestine), implies: • the administration of the compound to be tested by i.p. route; • the administration of carmine red (marker not directly absorbable from the stomach) by intragastric route through a metal probe, after 20 minutes from the administration of the compound to be tested; • the rat sacrifice by cervical dislocation after a pre-fixed time (30 minutes) starting from the administration time; • the intestine explant from pylorus to the ileo-cecal valve; • the determination of the intestinal part crossed by the marker; • the data processing to determine the percentage of crossed part with respect to the total length of the small intestine.
With respect to the control (physiological solution or carrier wherein the compounds to be tested were solubilized or dispersed), the administration of CB1 agonist compounds implies a reduction of the intestinal transit percentage; an opposite effect is noticed in case of antagonist compounds. The latter are therefore capable to cancel the constipating effect of CB1 agonist compounds.
Each test was repeated on ten animals; the results reported in the Examples are the average of the results obtained with ten animals.

Cc1c(C(=O)NN2CCCCC2)nn(-c2ccc(Cl)cc2Cl)c1-c1ccc(Cl)s1 [Example 3.1b, N-piperidinyl-5-(5-Chloro-thiophen-2-yl)-1-(2′,4′-dichloro-phenyl)-4-methyl-1H-pyrazol-3-carboxamide]
length run by the marker relative to physiological solution, WIN 55,212-2 preceded by the compound (WIN 55,212-2 0.5 mg/kg preceded by compound 1.0 mg/kg): the same length | antagonism of the constipating effect of the CB1 agonist WIN 55,212-2: capable to antagonize the effect of a CB1 agonist; also recorded: capable to antagonize the constipating effect of the CB1 agonist WIN 55,212-2 | effect on the intestinal transit rate: increase the intestinal transit rate | intestinal portion run by the marker relative to the length run after physiological solution with Tween 80 (0.5 mg of compound/kg): 1.57 times | intestinal portion run by the marker relative to the length run after physiological solution with Tween 80 (1.0 mg of compound/kg): 1.76 times

N-pyrrolidinyl-5-(5-Chloro-thiophen-2-yl)-1-(2,4′-dichloro-phenyl)-4-methyl-1H-pyrazol-3-carboxamide [Example 3.1d]
length run by the marker relative to physiological solution, WIN 55,212-2 preceded by the compound (WIN 55,212-2 0.5 mg/kg preceded by compound 0.5 mg/kg): the same length | antagonism of the constipating effect of the CB1 agonist WIN 55,212-2: capable to antagonize the effect of a CB1 agonist | effect on the intestinal transit rate: increase the intestinal transit rate | intestinal portion run by the marker relative to the length run after physiological solution with Tween 80 (0.5 mg of compound/kg): 1.61 times | intestinal portion run by the marker relative to the length run after physiological solution with Tween 80 (1.0 mg of compound/kg): 1.74 times
